Laboratory results as given in paper PMC12935787, “Clinical pharmacokinetics and pharmacometabolomics of Andrographis paniculata capsules: Bridging drug disposition and metabolic response to precision medicine” (Naunyn-Schmiedeberg's Archives of Pharmacology, 2025).

How the values were obtained:
[1] = design: method as in Songvut et al. [2023b]; settings: ref Songvut et al. [2023b], cited from earlier work; for Cmax, previously reported / Tmax, previously reported: AP dose corresponding to 60 mg of andrographolide
[2] = test system: Human metabolic pathways (KEGG); test: Urine pharmacometabolomics, peaks-to-pathway mummichog analysis; format: in vivo, human (healthy volunteers); settings: urinary PMx analysis, 1000 mg and 2000 mg AP (either dose)
Experimental: The protocol was published (Tee et al. [2022]).
Plasma samples (blank and subject) were thawed from −80 °C and processed using cold protein precipitation (200 μL plasma + 600 μL acetone:acetonitrile:methanol [1:1:1]). After −20 °C incubation (1 h) and centrifugation (10,000 rpm, 4 °C, 10 min), supernatants were filtered (0.22 μm) into LC–MS vials. System suitability test using vendor-provided internal standards ensured instrument performance parameters met acceptance criteria prior to metabolomics analysis. Samples (plasma and urine) were prepared in four batches. Each batch was analyzed separately in positive and negative ionization modes using a global metabolomics approach, resulting in eight analytical batches. Each analytical batch commenced with blank water, blank water spiked with internal standard (IS), and blank plasma or urine (with and without IS), all meeting the acceptance criteria in Figure S6 and Figure S7. Five pooled quality control (PQC) samples were analyzed at batch start, with additional PQCs interspersed after every fourth subject sample to monitor LC–MS system stability. Chromatogram overlays of all PQCs for every batch were assessed for consistency and instrument stability. Overlays of PQCs with subject samples were also evaluated in Figure S8. All eight batches met predefined acceptance criteria prior to data processing.
Dose-dependent PMx analyses compared pre-dose (T0) with post-dose time points (T2.5, T3, T3.5) for plasma and pre-dose (U0) with post-dose intervals (0–4 h [U1], 4–8 h [U2], 8–12 h [U3]) for urine, using positive and negative ion mode acquisition.
PCA results for pre- and post-dose urine samples were obtained by performing similar statistical and multivariate analyses of metabolite data (Figure S5). Batch effects were not observed in the normalized datasets for both positive and negative modes at either dose. All urine samples were successfully analyzed, except for samples U13 and U14 for the 1000 mg AP dose in positive mode, which were not captured due to a power supply issue with the LC–MS during the analysis.

C=C1CC[C@@H]2[C@](C)(CO)[C@H](O)CC[C@@]2(C)[C@@H]1C/C=C1/C(=O)OC[C@H]1O [andrographolide]
Cmax, previously reported [1]: 72.1 ± 28.7 ng/mL
Tmax, previously reported [1]: 48 min
tolerance in human PK studies [1]: 180 to 360 mg/day
free compound detected in urine [2]: detected no free

C=C1CC[C@@H]2[C@](C)(CO)[C@H](O)CC[C@@]2(C)[C@@H]1CCC1=CCOC1=O [14-deoxyandrographolide]
Cmax, previously reported [1]: 4.2 ± 3.4 ng/mL
Tmax, previously reported [1]: 60 min
free compound detected in urine [2]: detected no free

C=C1CC[C@@H]2[C@](C)(CO[C@@H]3O[C@H](CO)[C@@H](O)[C@H](O)[C@H]3O)CCC[C@@]2(C)[C@@H]1CCC1=CCOC1=O [neoandrographolide]
Cmax, previously reported [1]: 24.4 ± 5.6 ng/mL
Tmax, previously reported [1]: 54 min
free compound detected in urine [2]: detected no free
